The target in one data set is T1, NMDAR2A (Homo sapiens, UniProt Q12879).
T1 construct: expressed in transfected cells; host or cells: HEK cells (membrane extract)
The experiment in a line: [3H]MK-801 binding in NMDAR expressing HEK cell membranes (facilitation of NMDAR activation). The format is biochemical. The note with it: 50 μM glutamate; for EC50: read-out: B: log EC50 (converted). As to the method: (§1) Assays were conducted as described by Moskal et al., “GLYX-13: a monoclonal antibody-derived peptide that acts as an N-methyl-D-aspartate receptor modulator,” Neuropharmacology, 49, 1077-87, 2005. These studies were designed to determine if the test compounds act to facilitate NMDAR activation in NMDAR2A, NMDAR2B, NMDAR2C or NMDAR2D expressing HEK cell membranes as measured by increases in [^3H]MK-801 binding.
(§2) In the assay, 300 μg of NMDAR expressing HEK cell membrane extract protein was preincubated for 15 minutes at 25° C. in the presence of saturating concentrations of glutamate (50 μM) and varying concentrations of test compound (1×10^15M−1×10^−7M), or 1 mM glycine. Following the addition of 0.3 μCi of [^3H]MK-801 (22.5 Ci/mmol), reactions were again incubated for 15 minutes at 25° C. (nonequilibrium conditions). Bound and free [^3H]MK-801 were separated via rapid filtration using a Brandel apparatus.
(§3) In analyzing the data, the DPM (disintegrations per minute) of [^3H]MK-801 remaining on the filter were measured for each concentration of test compound or for 1 mM glycine. The DPM values for each concentration of a ligand (N=2) were averaged. The baseline value was determined from the best fit curve of the DPM values modeled using the GraphPad program and the log(agonist) vs. response (three parameters) algorithm was then subtracted from all points in the dataset. The % maximal [^3H]MK-801 binding was then calculated relative to that of 1 mM glycine: all baseline subtracted DPM values were divided by the average value for 1 mM glycine. The EC50 and % maximal activity were then obtained from the best fit curve of the % maximal [^3H]MK-801 binding data modelled using the GraphPad program and the log(agonist) vs. response (three parameters) algorithm.
(§4) The tables below summarize the results for the wild type NMDAR agonists NMDAR2A, NMDAR2B, NMDAR2C, and NMDAR2D, and whether the compound is not an agonist (−), is an agonist (+), or is a strong agonist (++), where column A is based on the % maximal [^3H]MK-801 binding relative to 1 mM glycine (−=0; <100%=+; and >100%=++); and column B is based on log EC50 values (0=−; ≥1×10^−9 M (e.g., −8)=+; and <1×10^−9 M (e.g., −10)=++).

For a further data set, the target named is T2, NMDAR2B (Homo sapiens, UniProt Q13224).
T2 construct: expressed in transfected cells; host or cells: HEK cells (membrane extract)
T2 sequence (Q13224 27-1484, species assumed, other chains not shown): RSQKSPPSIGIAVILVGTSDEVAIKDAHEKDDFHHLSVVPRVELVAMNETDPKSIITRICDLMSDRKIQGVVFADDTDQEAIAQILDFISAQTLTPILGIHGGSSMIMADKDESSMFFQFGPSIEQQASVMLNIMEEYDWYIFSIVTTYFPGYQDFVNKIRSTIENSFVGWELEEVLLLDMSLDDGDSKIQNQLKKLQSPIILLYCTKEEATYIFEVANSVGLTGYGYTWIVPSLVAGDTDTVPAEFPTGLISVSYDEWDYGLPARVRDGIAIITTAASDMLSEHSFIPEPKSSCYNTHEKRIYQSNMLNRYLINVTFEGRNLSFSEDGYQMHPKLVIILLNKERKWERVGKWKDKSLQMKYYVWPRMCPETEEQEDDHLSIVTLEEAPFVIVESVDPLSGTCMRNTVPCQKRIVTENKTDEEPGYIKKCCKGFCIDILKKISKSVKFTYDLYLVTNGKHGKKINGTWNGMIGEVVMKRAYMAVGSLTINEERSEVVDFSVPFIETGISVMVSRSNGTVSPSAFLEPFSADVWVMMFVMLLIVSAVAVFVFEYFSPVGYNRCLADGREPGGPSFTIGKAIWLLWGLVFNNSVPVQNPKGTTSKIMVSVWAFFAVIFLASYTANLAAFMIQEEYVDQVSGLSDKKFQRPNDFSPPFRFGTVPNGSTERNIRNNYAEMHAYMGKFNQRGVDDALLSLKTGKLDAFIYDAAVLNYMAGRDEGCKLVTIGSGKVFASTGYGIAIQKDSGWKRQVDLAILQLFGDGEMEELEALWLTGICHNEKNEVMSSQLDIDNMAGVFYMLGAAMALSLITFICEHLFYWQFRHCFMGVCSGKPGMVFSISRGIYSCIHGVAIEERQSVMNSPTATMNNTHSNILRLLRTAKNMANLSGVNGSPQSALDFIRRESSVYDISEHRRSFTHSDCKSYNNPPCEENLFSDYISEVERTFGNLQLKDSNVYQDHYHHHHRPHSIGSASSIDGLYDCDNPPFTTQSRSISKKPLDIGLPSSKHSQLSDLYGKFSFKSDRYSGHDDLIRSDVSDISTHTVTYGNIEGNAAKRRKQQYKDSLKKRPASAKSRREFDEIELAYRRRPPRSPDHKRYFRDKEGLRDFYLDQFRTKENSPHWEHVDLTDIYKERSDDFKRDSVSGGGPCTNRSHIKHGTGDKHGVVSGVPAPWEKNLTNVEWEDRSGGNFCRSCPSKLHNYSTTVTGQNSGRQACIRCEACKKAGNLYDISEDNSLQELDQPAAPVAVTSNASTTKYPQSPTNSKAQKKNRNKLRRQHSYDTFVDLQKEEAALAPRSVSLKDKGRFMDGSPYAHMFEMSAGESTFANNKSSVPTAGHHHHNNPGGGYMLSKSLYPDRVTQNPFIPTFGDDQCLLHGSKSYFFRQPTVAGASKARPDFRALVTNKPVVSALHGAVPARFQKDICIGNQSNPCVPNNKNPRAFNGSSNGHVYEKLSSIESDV
The data set is described as above. The format is biochemical. The note with it: 50 μM glutamate; for EC50: read-out: B: log EC50 (converted); for Emax: 0.25 h, read-out: A: % maximal [3H]MK-801 binding relative to 1 mM glycine. As to the method:
as §1, §2, §3, §4

Data set [1] concerns Sprague Dawley rats. The experiment in a line: Porsolt forced swim test. Also noted: key to Significance vs. vehicle: Yes: statistically significant (p<=0.05) from vehicle at dose level shown; No: not statistically significant from vehicle. It counts as in vivo, rat. On the procedure:
A non-clinical in vivo pharmacology study (Porsolt assay) was performed to measure antidepressant-like effects. A negative control (0.5% sodium carboxymethyl cellulose in 0.9% sterile saline vehicle) and a positive control (fluoxetine) are shown for comparison against test compound. The study allowed for the evaluation of the effects of each compound on the Porsolt forced swim test as assessed by the rats' response (reduced floating time) during a 5-minute swimming test.
Male 2-3 month old Sprague Dawley rats were used (Harlan, Indianapolis, Ind.). Rats were housed in Lucite cages with aspen wood chip bedding, maintained on a 12:12 light:dark cycle (lights on at 5 AM), and given ad libitum access to Purina lab chow (USA) and tap water throughout the study.
The Porsolt forced swim test adapted for use in rats was performed as described by Burgdorf et al., (The long-lasting antidepressant effects of rapastinel (GLYX-13) are associated with a metaplasticity process in the medial prefrontal cortex and hippocampus. Neuroscience 308:202-211, 2015). Animals were placed in a 46 cm tall×20 cm in diameter clear glass tube filled to 30 cm with tap water (23±1° C.) for 15 min on the first day (habituation) and 5 min on the subsequent test day. Positive control fluoxetine was dosed 3 times (24 h, 5 h and 1 h) prior to testing. Animals were tested 1 h or 24 h post-dosing with the test compounds or vehicle. Animals received a 15 min habituation session 1 day before the 5 min test. A subset of compounds tested at 1 h post-dosing were retested at 1 wk post-dosing in the same sets of animals. Water was changed after every other animal. Animals were videotaped, and floating time as defined as the minimal amount of effort required to keep the animals head above water was scored offline by a blinded experimenter with high inter-rater reliability (Pearson's r>0.9).
Each compound tested at dose level shown. Significance vs. vehicle group for each experiment is marked. […] A compound marked “No” was not statistically significant from vehicle. Data was averaged for test compound and vehicle groups (N approximately 8 per group) and the percent reduction in floating for group treated with test compound relative to group treated with vehicle is shown.

A short description of a further data set: IV pharmacokinetics. It counts as in vivo, Sprague Dawley rats. The conditions noted are these: rat, intravenous 2 mg/kg, normal saline (* in 5% NMP, 5% Solutol HS, 90% normal saline); for AUC(0-t) / half-life / C0 / Vd: Sprague-Dawley, in vivo; for C0: read-out: C0; for Vd: read-out: Vss. An excerpt: The table below summarizes the results of the IV pharmacokinetics.

A short description of data set [2]: oral pharmacokinetics (plasma, brain, CSF). It counts as in vivo, Sprague Dawley rats. The note with it: rat, per os 10 mg/kg; for bioavailability / Tmax / AUC(0-t) / Cmax: Sprague-Dawley, plasma, po; for Tmax: normal saline (* in 5% NMP, 5% Solutol HS, 90% normal saline), read-out: Tmax; for Cmax: read-out: Cmax.
Protocol: In another experiment, Sprague Dawley rats were dosed per os using a normal saline formulation containing 10 mg/kg of the compounds identified in the table below (except for the compounds marked with an asterisk (“*”) that were delivered in 5% NMP, 5% Solutol® HS and 90% normal saline formulation). Plasma, brain, and CSF samples were analyzed at various time points over a 24 hour period.
Data set [3] deals with Sprague Dawley rats. The experiment in a line: Bennett model of mechanical analgesia (sciatic nerve chronic constriction, paw withdrawal threshold).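 Also: log paw withdrawal threshold scaled from vehicle group mean (0%) to naive 15 g value (100%).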 The format is in vivo, rat. The conditions noted are these: 150 mg/kg PO, example gabapentin control value. As to the method: The Bennett model of mechanical analgesia is used to assess the analgesic effects of compounds as measured by paw withdrawal threshold. Bennett GJ, Xie YK, “A peripheral mononeuropathy in rat that produces disorders of pain sensation like those seen in man,” Pain 33:87-107, 1988. […] Vehicle animals receive the surgery and then receive vehicle rather than test compound. Animals were tested 1 hr, 24 h and 1 wk post-test compound or vehicle administration.
Male 2-3 month old Sprague Dawley rats were used. Harlan was the supplier for all studies. Rats were housed in Lucite cages with aspen wood chip bedding, maintained on a 12:12 light:dark cycle (lights on at 5 AM), and given ad libitum access to Purina lab chow (USA) and tap water throughout the study.
Rats were anesthetized using inhaled isoflurane (2.5%). Sciatic nerve chronic constriction nerve injury surgery was performed as previously described (Bennett and Xie, 1988). An incision (˜1.5 cm in length) was made with a scalpel blade dorsally through skin on the right hind limb, parallel and posterior to femur. Using a small pointed hemostat, the biceps femoris and gluteus superficialis muscles were separated. Using curved blunt forceps, the common sciatic nerve was isolated and exposed. For the mechanical analgesia studies, the whole sciatic nerve was ligated. Using hemostats/forceps and chromic gut (5-0), the nerve was loosely ligated with a square knot; 3 ligatures, 1 mm apart were placed on the nerve. […] Testing occurred approximately 2 weeks post-surgery.
During testing, rats were acclimated to the surface of a suspended wire mesh grid (1 cm×1 cm, with the wire being 0.3 cm in diameter) for 15-20 min. Starting from the smallest, each Von Frey filament was pressed perpendicularly to the plantar surface of the affected (ipsilateral) hind paw until slightly bent and then held for 6 second. If an obvious hind paw withdrawal or a flinching behavior immediately after the withdrawal of the filament was not observed, the next larger filament was used in the same manner. In case of a response, a lower filament was used. This was repeated until six responses were collected.
For all studies, animals were baselined prior to study start to test for allodynia (defined as a paw withdrawal threshold under 5). A subset of animals was tested with gabapentin (150 mg/kg, PO) to ensure at least 50% analgesia. Once it was confirmed animals were ready for study initiation, animals were balanced across groups. All study investigators were blind to treatment conditions. Animals were dosed with 0.1, 1 or 10 mg/kg of test compound via oral gavage (PO), control sets of animals were dosed with gabapentin (150 mg/kg, PO) or vehicle (0.5% Na-CMC in 0.9% sterile saline, PO). Testing occurred 1 h post-dosing with animals retested 24 hrs and 1 week post-dosing. The percent analgesia calculations for each animal were made using the following equation: % analgesia=[(log(x)−y)/((log (z)−y)]*100, where x=the paw withdrawal threshold for the drug-treated animal in grams, y=the average of the log(x) values for the vehicle treated group, and z=the paw withdrawal threshold for naïve animals in grams (historical value of 15 used).
The results are shown in the table below where the percentage of analgesia is measured at 1 hour, 24 hours, and 1 week after compound administration. Since each study had its own gabapentin control group, an example gabapentin control value is shown.

[4] abbreviates: 20 mg/kg, dosed 3 times (24 h, 5 h and 1 h) prior to testing, 1 h post-dose.

A value given as a limit tells only on which side of the number the result lay.

T1 sequence (Q12879 23-1464, species assumed, other chains not shown): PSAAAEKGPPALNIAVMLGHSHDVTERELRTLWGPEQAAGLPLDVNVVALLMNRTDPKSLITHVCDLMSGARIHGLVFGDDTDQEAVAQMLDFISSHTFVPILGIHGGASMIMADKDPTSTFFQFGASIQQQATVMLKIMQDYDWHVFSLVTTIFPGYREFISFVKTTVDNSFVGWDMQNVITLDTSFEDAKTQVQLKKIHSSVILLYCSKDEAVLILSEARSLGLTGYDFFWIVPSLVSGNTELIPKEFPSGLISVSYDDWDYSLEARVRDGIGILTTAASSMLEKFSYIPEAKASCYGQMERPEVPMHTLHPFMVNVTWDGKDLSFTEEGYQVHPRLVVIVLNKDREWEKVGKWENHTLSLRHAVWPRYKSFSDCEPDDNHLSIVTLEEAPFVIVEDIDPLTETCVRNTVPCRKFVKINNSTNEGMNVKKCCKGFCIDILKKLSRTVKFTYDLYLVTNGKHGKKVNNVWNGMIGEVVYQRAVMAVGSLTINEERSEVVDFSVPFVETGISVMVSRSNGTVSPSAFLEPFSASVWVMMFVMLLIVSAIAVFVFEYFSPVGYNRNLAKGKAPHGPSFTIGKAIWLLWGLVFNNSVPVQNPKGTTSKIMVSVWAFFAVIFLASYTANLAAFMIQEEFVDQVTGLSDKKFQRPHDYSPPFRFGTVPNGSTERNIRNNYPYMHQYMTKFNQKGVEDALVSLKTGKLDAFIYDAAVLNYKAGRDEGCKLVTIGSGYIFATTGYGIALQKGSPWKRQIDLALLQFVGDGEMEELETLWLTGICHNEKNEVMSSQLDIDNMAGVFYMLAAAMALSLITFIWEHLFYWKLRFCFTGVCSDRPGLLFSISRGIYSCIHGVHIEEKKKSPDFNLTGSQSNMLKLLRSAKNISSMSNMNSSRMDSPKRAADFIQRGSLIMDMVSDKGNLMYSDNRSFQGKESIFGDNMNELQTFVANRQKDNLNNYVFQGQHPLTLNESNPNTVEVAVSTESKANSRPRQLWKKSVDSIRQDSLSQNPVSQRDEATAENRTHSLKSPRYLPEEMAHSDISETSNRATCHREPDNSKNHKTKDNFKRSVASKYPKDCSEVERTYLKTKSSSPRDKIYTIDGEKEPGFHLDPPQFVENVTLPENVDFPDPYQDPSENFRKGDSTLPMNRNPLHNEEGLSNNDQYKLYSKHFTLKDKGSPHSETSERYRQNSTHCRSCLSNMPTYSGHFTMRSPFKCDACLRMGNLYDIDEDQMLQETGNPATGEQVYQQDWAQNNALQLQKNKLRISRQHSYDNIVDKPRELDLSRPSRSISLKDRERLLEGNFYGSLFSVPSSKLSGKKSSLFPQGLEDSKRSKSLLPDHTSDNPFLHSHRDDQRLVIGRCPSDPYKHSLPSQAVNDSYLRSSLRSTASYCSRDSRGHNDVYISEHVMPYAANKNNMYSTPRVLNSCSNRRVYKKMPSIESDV

As for `NC(=O)C(CO)N1CC2(CCCCC2)C1=O` (single isomer, unassigned) [AS, 3-hydroxy-2-(l-oxo-2-azaspiro[3.5]nonan-2-yl)propanamide], the EC50 on NMDAR2A and on NMDAR2B was below 1 nM each time. For the same molecule, the Emax on NMDAR2A (0.25 h, read-out: A: % maximal [3H]MK-801 binding relative to 1 mM glycine) was below 100%; at NMDAR2B it was below 100%. In addition, the “% reduction in float time” value in the data set on Sprague Dawley rats [1] (0.1 mg/kg, 1 wk post-dose) is recorded as 32.0%; in the data set on Sprague Dawley rats [1] (0.1 mg/kg, 1 h post-dose), 82.3%. The Significance vs. vehicle entry in the data set with Sprague Dawley rats [1] (0.1 mg/kg, 1 wk post-dose) is on record as “No”; in the data set with Sprague Dawley rats [1] (0.1 mg/kg, 1 h post-dose), “Yes (statistically significant (p<=0.05) from vehicle at dose level shown)”.
Turning to `CN(Cc1ccccc1)C1CCC2(CC1)CNC2=O` (stereo not drawn) [EY], the “A: % maximal [3H]MK-801 binding relative to 1 mM glycine” value at NMDAR2A is “− (−=0)”. Moreover, on NMDAR2B, the EC50 was below 1 nM and the Emax is below 100%. In the data set “IV pharmacokinetics”, the area under the curve AUC(0-t) is 1210 ng·h/mL, the half-life was 33.6 min, the C0 amounted to 2100 ng/mL and the Vd came out at 1.09 L/kg. Besides, the CI in the data set “IV pharmacokinetics” stood at 27.44 mL/min/kg. For the same molecule, in data set [2], the bioavailability came to 48%, the time to peak (Tmax) came out at 30 min, the AUC(0-t) came to 2920 ng·h/mL and the Cmax came to 1130 ng/mL. In data set [2], the “CSF Cmax” value is 539.09 ng/mL and the “Brain Cmax” value stood at 1833.34 ng/mL.
Regarding `CCN(Cc1ccccc1)C1CCC2(CC1)CNC2=O` (stereo not drawn) [FB], at NMDAR2A, the “A: % maximal [3H]MK-801 binding relative to 1 mM glycine” value is recorded as “+ (<100%=+)” and the half-maximal effective concentration (EC50) was below 1 nM. Moreover, on NMDAR2B, the “A: % maximal [3H]MK-801 binding relative to 1 mM glycine” value is reported as “+ (<100%=+)” and the EC50 was below 1 nM. Besides, in the data set “IV pharmacokinetics”, the area under the curve AUC(0-t) worked out at 782 ng·h/mL, the half-life is 45 min, the C0 stood at 981 ng/mL and the Vd came to 2.33 L/kg. This molecule displayed a CI in the data set “IV pharmacokinetics” of 41.98 mL/min/kg. Also, in data set [2], the bioavailability stood at 87%, the Tmax came to 30 min, the area under the curve AUC(0-t) turned out to be 3410 ng·h/mL and the peak concentration (Cmax) stood at 1590 ng/mL. For the same molecule, in data set [2], the “CSF Cmax” value worked out at 981.8 ng/mL and the “Brain Cmax” value came out at 3632.82 ng/mL.
In the case of `CNCCC(Oc1ccc(C(F)(F)F)cc1)c1ccccc1` (stereo not drawn) [Fluoxetine, reference compound], in the data set with Sprague Dawley rats [1] (setting [4]), the “% reduction in float time” value is 54% and the Significance vs. vehicle entry was “Yes (statistically significant (p<=0.05) from vehicle at dose level shown)”.
On to `NCC1(CC(=O)O)CCCCC1` [Gabapentin, reference compound], for which the “% analgesia” value with Sprague Dawley rats [3] (1 wk post-dosing) was 0%; with Sprague Dawley rats [3] (1 h post-dosing), 72%; with Sprague Dawley rats [3] (1 h post-dosing, listed as gabapentin) it was “at least 50%”.

Broadly, the EC50 is the concentration needed to bring the measured effect to its halfway point. By AUC(0-t) is commonly meant the area under the concentration-time curve up to a stated or last time point. The term half-life denotes how long it takes for the measured level to halve. The bioavailability is dose-corrected exposure relative to a reference, in per cent. What is called Tmax is the time at which the peak concentration occurs. Broadly, the Cmax is the highest concentration seen after dosing.

The values are drawn from patent US10961189B2, “Spiro-lactam NMDA receptor modulators and uses thereof” (Aptinyx Inc., priority 2016, dated 2021).
